For data set [1], the target named is Human immunodeficiency virus type 1 reverse transcriptase (Human immunodeficiency virus 1, UniProt Q72547). As to the kind of experiment: Inhibition of wild type HIV1 reverse transcriptase using poly (A)/oligo (dT)15 as template/primer assessed as decrease in biotin-dUTP incorporation after 1 hr by ELISA. In general terms: In an ELISA, binding on a coated surface is turned into a signal by an enzyme label.

Data set [2] deals with Human immunodeficiency virus 1. As to the kind of experiment: Antiviral activity against HIV1 harboring reverse transcriptase E138K mutant infected in human MT4 cells assessed as protection against virus-induced cytopathic effect after 5 days by MTT assay. It is filed as functional, organism-based. As to conditions: Human immunodeficiency virus 1, MT4, 120 h. For orientation: Protection from cytopathic effect is a common read-out in antiviral testing.

The test system of data set [3] is Human immunodeficiency virus 1. As to the kind of experiment: microbe, parasite or virus in culture. As to conditions: Human immunodeficiency virus 1, 3B, MT4, 120 h.
Description: Antiviral activity against wild type HIV1 3B infected in human MT4 cells assessed as protection against virus-induced cytopathic effect after 5 days by MTT assay
For data set [4], the system named is Human immunodeficiency virus 1. As to the kind of experiment: Antiviral activity against HIV1 harboring reverse transcriptase Y188L mutant infected in human MT4 cells assessed as protection against virus-induced cytopathic effect after 5 days by MTT assay. It is filed as functional, organism-based. The settings on record: Human immunodeficiency virus 1, MT4, 120 h.

For data set [5], the system named is Human immunodeficiency virus 1. As to the kind of experiment: Antiviral activity against HIV1 harboring reverse transcriptase L100I mutant infected in human MT4 cells assessed as protection against virus-induced cytopathic effect after 5 days by MTT assay. It is filed as functional, organism-based. The settings on record: Human immunodeficiency virus 1, MT4, 120 h.

The subject of data set [6] is Human immunodeficiency virus 1. As to the kind of experiment: Antiviral activity against HIV1 harboring reverse transcriptase RES056 double mutant infected in human MT4 cells assessed as protection against virus-induced cytopathic effect after 5 days by MTT assay. As to conditions: Human immunodeficiency virus 1, MT4, 120 h. It is filed as functional, organism-based.

For data set [7], the system named is Human immunodeficiency virus 1. As to the kind of experiment: Antiviral activity against HIV1 harboring reverse transcriptase Y181C mutant infected in human MT4 cells assessed as protection against virus-induced cytopathic effect after 5 days by MTT assay. It is filed as functional, organism-based. As to conditions: Human immunodeficiency virus 1, MT4, 120 h.

A short description of another data set: in vitro. The settings on record: human, MT4 cells.
Data set [8] concerns Human immunodeficiency virus 1. As to the kind of experiment: Antiviral activity against HIV1 harboring reverse transcriptase F227L/V106A double mutant infected in human MT4 cells assessed as protection against virus-induced cytopathic effect after 5 days by MTT assay. Type of data set: functional, organism-based. As to conditions: Human immunodeficiency virus 1, MT4, 120 h.

The subject of data set [9] is Human immunodeficiency virus 1. As to the kind of experiment: Antiviral activity against HIV1 harboring reverse transcriptase K103N mutant infected in human MT4 cells assessed as protection against virus-induced cytopathic effect after 5 days by MTT assay. It is filed as functional, organism-based. The settings on record: Human immunodeficiency virus 1, MT4, 120 h.

Data set [10] concerns Human immunodeficiency virus 2. As to the kind of experiment: Antiviral activity against HIV2 ROD infected in human MT4 cells assessed as protection against virus-induced cytopathic effect after 5 days by MTT assay. Type of data set: functional, organism-based. The settings on record: Human immunodeficiency virus 2, ISOLATE ROD, MT4, 120 h.
Data set [11] addresses Human immunodeficiency virus type 1 reverse transcriptase (Human immunodeficiency virus 1, UniProt Q72547, K103N/Y181C). As to the kind of experiment: Inhibition of HIV1 reverse transcriptase K103N/Y181C double mutant using poly (A)/oligo (dT)15 as template/primer assessed as decrease in biotin-dUTP incorporation after 1 hr by ELISA.
A short description of data set [12]: Cytotoxicity against human MT4 cells assessed as reduction in cell viability after 5 days by MTT assay. Type of data set: cell-based. (Formazan colour is commonly taken as a measure of viable cells.)

Description for in vitro: Selectivity index, ratio of CC50 for human MT4 cells to EC50 for wild type HIV1 3B infected in human MT4 cells

With `C=CCNc1cc(Oc2c(C)cc(/C=C/C#N)cc2C)cc(Nc2ccc(C#N)cc2)n1`, the half-maximal inhibitory concentration (IC50) in data set [1] is 270 nM; in [11], 31.3 µM. The half-maximal effective concentration (EC50) in [2] was 43 nM; in data set [3] it was 9.99 nM; in [4], over 82.1 µM; in data set [5], 630 nM; in [6] it was 30400 nM; in [7], 1090 nM. The results for the 50% effective concentration (EC50) in data set [8], in data set [9] and in data set [10] were at least 57.4 µM, 27 nM and over 82.1 µM, respectively. Besides, in the data set “in vitro”, the selectivity ratio worked out at 8220. Moreover, the CC50 at 120 h in data set [12] is 82.1 µM.

Regarding `Cc1cc(/C=C/C#N)cc(C)c1Oc1cc(Cl)nc(Nc2ccc(C#N)cc2)c1`, the IC50 in data set [1] worked out at 180 nM. In addition, the EC50 is 43 nM in data set [2]; 7.81 nM in data set [3]; over 312 µM in data set [4]; 710 nM in [5]; over 312000 nM in [6]; 1170 nM in data set [7]. For the same compound, the EC50 in [8] is over 312 µM; in data set [9], 33 nM; in data set [10], over 312 µM. In “in vitro”, the selectivity ratio was over 39900. Also, the CC50 at 120 h in data set [12] is over 312 µM.

Turning to `COC(CNc1cc(Oc2c(C)cc(/C=C/C#N)cc2C)nc(Nc2ccc(C#N)cc2)n1)OC`, the concentration for half-maximal inhibition (IC50) in data set [1] was 170 nM. Further, the CC50 at 120 h in data set [12] worked out at 3.47 µM.

`COCCNc1cc(Oc2c(C)cc(/C=C/C#N)cc2C)cc(Nc2ccc(C#N)cc2)n1`: the IC50 stood at 920 nM in [1] and 18.1 µM in [11]. Moreover, the EC50 in [2] amounted to 57 nM; in data set [3], 6.24 nM; in data set [4] it was 41.5 µM; in data set [5], 740 nM; in data set [6], 4790 nM; in data set [7], 1370 nM. Also, the EC50 was 22.3 µM in [8], 28 nM in data set [9] and over 58.2 µM in data set [10]. The selectivity ratio in the data set “in vitro” amounted to 9330. Further, the CC50 at 120 h in [12] was 58.2 µM.

On to `Cc1cc(/C=C/C#N)cc(C)c1Oc1cc(NCCN(C)C)nc(Nc2ccc(C#N)cc2)c1`, for which the IC50 in data set [1] was 830 nM; in data set [11] it was 2.47 µM. Moreover, the EC50 in data set [2] was 970 nM; in data set [3], 1.91 nM; in data set [4], over 4.27 µM; in data set [5] it was 190 nM; in data set [6], 230 nM; in data set [7], 180 nM. Further, the EC50 in [8] was over 4.27 µM; in data set [9], 2.7 nM; in data set [10], over 4.27 µM. For the same compound, the selectivity ratio in “in vitro” came to 2240. Further, the half-maximal cytotoxic concentration (CC50) at 120 h in [12] is 4.27 µM.

Take `O=C1Nc2ccc(Cl)cc2[C@@](C#CC2CC2)(C(F)(F)F)O1` [EFAVIRENZ]: the EC50 was determined as 49 nM in [2]; 0.13 µM in data set [4]; 47 nM in data set [5]; 110 nM in data set [6]; 6 nM in data set [7]; 0.12 µM in data set [8]. The EC50 in data set [9] is 110 nM. Moreover, the cytotoxic concentration (CC50) at 120 h in [12] is over 6.34 µM.

With `Cc1cc(C#N)cc(C)c1Oc1nc(Nc2ccc(C#N)cc2)nc(N)c1Br` [ETRAVIRINE], the EC50 was 0.021 µM in [4]; 10 nM in data set [5]; 26 nM in [6]; 20 nM in [7]; 0.024 µM in data set [8].

Consider `Cc1ccnc2c1NC(=O)c1cccnc1N2C1CC1` [NEVIRAPINE], for which the 50% effective concentration (EC50) was 280 nM in [2]; 125 nM in data set [3]; 3250 nM in [5]; over 15000 nM in data set [6]; 10300 nM in [9]. The CC50 at 120 h in data set [12] is over 15 µM.

For `Cc1cn([C@H]2C[C@H](N=[N+]=[N-])[C@@H](CO)O2)c(=O)[nH]c1=O` [ZIDOVUDINE], the EC50 in data set [2] is 18 nM; in [3], 11.4 nM; in [6] it was 12 nM; in [7] it was 6 nM; in [10], 0.0081 µM. Moreover, in “in vitro”, the selectivity ratio is over 658. Moreover, the 50% cytotoxic concentration (CC50) at 120 h in [12] was over 7.48 µM.

Broadly, the IC50 is the concentration at which inhibition is half-maximal. In general, EC50 refers to the midpoint of the concentration-response curve. The term CC50 denotes the concentration giving 50% cytotoxicity.

Source of the values: ChEMBL document CHEMBL4219160, “The discovery of novel diarylpyri(mi)dine derivatives with high level activity against a wide variety of HIV-1 strains as well as against HIV-2” (Bioorg Med Chem, 2018).
